Laboratory results published in patent US5488060A, “Substituted thiadiazoles, compositions containing them and their use as antimicrobial and marine antifouling agents” (The Dow Chemical Company, priority 1994, dated 1996).
Converted amounts (≈) assume the structure as drawn. Where two headings read alike, the source gives them in different places.

How the values were obtained:
Assay type in all cases: cell-based
Bacillus subtilis (Bs) = assay: Minimum inhibitory concentration (MIC) in nutrient agar, Bacillus subtilis
Procedure: (§1) The antimicrobial activity of the compounds of the present invention is set forth as the minimum inhibitory concentration (MIC) for the active compounds and is determined for nine (9) bacteria, using nutrient agar, and seven (7) yeast and fungi, using malt yeast agar. This determination is conducted using a one percent solution of the test compound prepared in a mixture of acetone and water.
(§2) Nutrient agar is prepared at pH 6.8, representing a neutral medium, and at pH 8.2, representing an alkaline medium. The nutrient agars are prepared by adding 23 g of nutrient agar to one-liter of deionized water. In addition, the alkaline medium is prepared by adjusting a 0.04M solution of N-[tris-(hydroxymethyl)methyl]glycine buffered deionized water with concentrated sodium hydroxide to a pH of 8.5.
(§3) The test tubes containing the agar are cooled in a water bath until the temperature of the agar is 48° C. Then, an appropriate amount of the one percent solution of the test compound is added (except in the controls where no compound is added) to the respective test tubes so that the final concentrations are 500, […], 100, 50, 25, 10, 5, 2.5, 1.0 and zero parts per million of the test compound in the agar, thus having a known concentration of test compound dispersed therein. The contents of the test tubes are then transferred to respective petri plates. After drying for 24 hours, the petri plates containing nutrient agar are inoculated with bacteria and those containing malt yeast agar are inoculated with yeast and fungi.
(§4) The inoculation with bacteria is accomplished by using the following procedure. Twenty-four hour-cultures of each of the bacteria are prepared by incubating the respective bacteria in tubes containing nutrient broth for 24 hours at 30° C. in a shaker. Dilutions of each of the 24 hour-cultures are made so that nine separate suspensions (one for each of the nine test bacteria) are made, each containing 10^8 colony forming units (CFU) per mL of suspension of a particular bacteria. Aliquots of 0.3 mL of each of the bacterial suspensions are used to fill the individual wells of Steer's Replicator. For each microbial suspension, 0.3 mL was used to fill three wells (i.e., three wells of 0.3 mL each) so that for the nine different bacteria, 27 wells are filled. The Steer's Replicator is then used to inoculate both the neutral and alkaline pH nutrient agar petri plates.
(§5) The inoculated petri plates are incubated at 30° C. for 48 hours and then read to determine if the test compound which is incorporated into the agar prevented growth of the respective bacteria.

[1] = test system: Pseudomonas aeruginosa (PRD-10); assay: Minimum inhibitory concentration (MIC) in nutrient agar, Pseudomonas aeruginosa PRD-10; conditions: 48 h
Procedure: as §1, §2, §3, §4, §5

Aspergillus niger (An) = assay: Minimum inhibitory concentration (MIC) in malt yeast agar, Aspergillus niger
Procedure: as §1
(§6) Malt yeast agar is prepared at pH 5.5 by adding 3 g yeast extract and 45 g malt agar per liter of deionized water. The specific agar is dispensed in 30 mL aliquots into 25×200 mm test tubes, capped and autoclaved for 15 minutes at 115° C.
as §3
(§7) The inoculation with the yeast and fungi is accomplished as follows. Cultures of yeast and fungi are incubated for seven days on malt yeast agar at 30° C. These cultures are used to prepare suspensions by the following procedure. A suspension of each organism is prepared by adding 10 mL of sterile saline and 10 microliters of octylphenoxy polyethoxy ethanol to the agar slant of yeast or fungi. The sterile saline/octylphenoxy potyethoxy ethanol solution is then agitated with a sterile swab to suspend the microorganism grown on the slant. Each resulting suspension is diluted into sterile saline (1 part suspension: 9 parts sterile saline). Aliquots of these dilutions are placed in individual wells of Steer's Replicator and petri plates inoculated as previously described. The petri plates are incubated at 30° C. and read after 48 hours for yeast and 72 hours for fungi.

[2] = test system: Salmonella choleraesuis (Se); assay: Minimum inhibitory concentration (MIC) in nutrient agar, Salmonella choleraesuis; conditions: Salmonella enterica, 48 h
Procedure: as §1, §2, §3, §4, §5

[3] = test system: Penicillium chrysogenum (Pc); assay: Minimum inhibitory concentration (MIC) in malt yeast agar, Penicillium chrysogenum
Procedure: as §1, §6, §3, §7

[4] = test system: Klebsiella pneumoniae (Kp); assay: Minimum inhibitory concentration (MIC) in nutrient agar, Klebsiella pneumoniae
Procedure: as §1, §2, §3, §4, §5

Trichoderma viride (Tv) = assay: Minimum inhibitory concentration (MIC) in malt yeast agar, Trichoderma viride
Procedure: as §1, §6, §3, §7

Candida albicans (Ca) = assay: Minimum inhibitory concentration (MIC) in malt yeast agar, Candida albicans
Procedure: as §1, §6, §3, §7

[5] = test system: Staphylococcus aureus (Sa); assay: Minimum inhibitory concentration (MIC) in nutrient agar, Staphylococcus aureus
Procedure: as §1, §2, §3, §4, §5

Fusarium oxysporum (Fo) = assay: Minimum inhibitory concentration (MIC) in malt yeast agar, Fusarium oxysporum
Procedure: as §1, §6, §3, §7

[6] = test system: Aureobasidium pullulan (Ap); assay: Minimum inhibitory concentration (MIC) in malt yeast agar, Aureobasidium pullulan
Procedure: as §1, §6, §3, §7

[7] = test system: Enterobacter aerogenes (Ea); assay: Minimum inhibitory concentration (MIC) in nutrient agar, Enterobacter aerogenes; conditions: Klebsiella aerogenes, 48 h
Procedure: as §1, §2, §3, §4, §5

Escherichia coli (Ec) = assay: Minimum inhibitory concentration (MIC) in nutrient agar, Escherichia coli
Procedure: as §1, §2, §3, §4, §5

[8] = test system: Saccharomyces cerevisiae (Sc); assay: Minimum inhibitory concentration (MIC) in malt yeast agar, Saccharomyces cerevisiae
Procedure: as §1, §6, §3, §7

[9] = test system: Pseudomonas aeruginosa (Pa); assay: Minimum inhibitory concentration (MIC) in nutrient agar, Pseudomonas aeruginosa; conditions: 30° C., 48 hours, read-out: Minimum Inhibitory Concentration, Pa
Procedure: as §1, §2, §3, §4, §5

Proteus vulgaris (Pv) = assay: Minimum inhibitory concentration (MIC) in nutrient agar, Proteus vulgaris; conditions: 48 h
Procedure: as §1, §2, §3, §4, §5

[10] = 48 h, pH 6.8, read-out: Minimum Inhibitory Concentration, Bs
[11] = 48 h, pH 8.2, read-out: Minimum Inhibitory Concentration, Bs
[12] = pH 6.8, read-out: Minimum Inhibitory Concentration, PRD
[13] = pH 8.2, read-out: Minimum Inhibitory Concentration, PRD
[14] = 72 h, pH 5.5, read-out: Minimum Inhibitory Concentration, An
[15] = pH 6.8, read-out: Minimum Inhibitory Concentration, SC
[16] = pH 8.2, read-out: Minimum Inhibitory Concentration, SC
[17] = pH 5.5, malt yeast agar, 30° C., 72 hours for fungi, read-out: Minimum Inhibitory Concentration, PC
[18] = 48 h, pH 8.2, read-out: Minimum Inhibitory Concentration, Kp
[19] = pH 6.8, nutrient agar, 30° C., 48 hours, read-out: Minimum Inhibitory Concentration, Kp
[20] = 48 h, pH 8.2, read-out: Minimum Inhibitory Concentration, Sa
[21] = pH 6.8, nutrient agar, 30° C., 48 hours, read-out: Minimum Inhibitory Concentration, Sa
[22] = pH 5.5, malt yeast agar, 30° C., read-out: Minimum Inhibitory Concentration, Ap
[23] = pH 6.8, read-out: Minimum Inhibitory Concentration, Ea
[24] = pH 8.2, read-out: Minimum Inhibitory Concentration, Ea
[25] = 48 h, pH 6.8, read-out: Minimum Inhibitory Concentration, Ec
[26] = pH 8.2, nutrient agar, 30° C., 48 hours, read-out: Minimum Inhibitory Concentration, Ec
[27] = pH 5.5, malt yeast agar, 30° C., 48 hours for yeast, read-out: Minimum Inhibitory Concentration, SC
[28] = pH 6.8, read-out: Minimum Inhibitory Concentration, Pv
[29] = pH 8.2, read-out: Minimum Inhibitory Concentration, Pv
[30] = pH 5.5, malt yeast agar, 30° C., 72 hours for fungi, read-out: Minimum Inhibitory Concentration, Tv
[31] = pH 5.5, malt yeast agar, 30° C., 48 hours for yeast, read-out: Minimum Inhibitory Concentration, Ca
[32] = pH 5.5, malt yeast agar, 30° C., 72 hours for fungi, read-out: Minimum Inhibitory Concentration, Fo

Compound | MIC (Bacillus subtilis (Bs); [10]) [µg/mL] | MIC (Bacillus subtilis (Bs); [11]) [µg/mL] | MIC [1, 12] [µg/mL] | MIC [1, 13] [µg/mL] | MIC (Aspergillus niger (An); [14]) [µg/mL] | MIC [2, 15] [µg/mL] | MIC [2, 16] [µg/mL] | MIC [3, 17] [µg/mL] | MIC [4, 18] [µg/mL] | MIC [4, 19] [µg/mL] | MIC [5, 20] [µg/mL] | MIC [5, 21] [µg/mL] | MIC [7, 23] [µg/mL] | MIC [7, 24] [µg/mL] | MIC (Escherichia coli (Ec); [25]) [µg/mL] | MIC (Escherichia coli (Ec); [26]) [µg/mL] | MIC ([9]; pH 6.8, nutrient agar) [µg/mL] | MIC ([9]; pH 8.2, nutrient agar) [µg/mL] | MIC (Proteus vulgaris (Pv); [28]) [µg/mL] | MIC (Proteus vulgaris (Pv); [29]) [µg/mL] | other results
N#CSCSc1nsnc1-c1cccs1 [Example XXX, 4-(2-Thiophene)-3-thiocyanatomethylthio-1,2,5-thiadiazole] | 500 (≈ 1840 µM) | 500 (≈ 1840 µM) | 500 (≈ 1840 µM) | > 500 | 50 (≈ 184 µM) | 500 (≈ 1840 µM) | > 500 | 9 (≈ 33.2 µM) | > 500 | 500 (≈ 1840 µM) | > 500 | 500 (≈ 1840 µM) | 500 (≈ 1840 µM) | > 500 | 500 (≈ 1840 µM) | 250 (≈ 921 µM) | 500 (≈ 1840 µM) | > 500 | 500 (≈ 1840 µM) | > 500 | MIC (Trichoderma viride (Tv); 72 h, pH 5.5, read-out: Minimum Inhibitory Concentration, Tv): 250 µg/mL (≈ 921 µM); MIC (Candida albicans (Ca); 48 h, pH 5.5, read-out: Minimum Inhibitory Concentration, Ca): 100 µg/mL (≈ 368 µM); MIC (Fusarium oxysporum (Fo); 72 h, pH 5.5, read-out: Minimum Inhibitory Concentration, Fo): 100 µg/mL (≈ 368 µM); MIC [6, 22]: 25 µg/mL (≈ 92.1 µM); MIC [8, 27]: 9 µg/mL (≈ 33.2 µM)
N#CSCSc1nsnc1-c1ccc(C(F)(F)F)cc1 [Example XXVI, 4-(4-Trifluoromethyl-phenyl)-3-thiocyanatomethylthio-1,2,5-thiadiazole] |  |  | 500 (≈ 1500 µM) | > 500 | 25 (≈ 75 µM) | 500 (≈ 1500 µM) | > 500 |  | > 500 | 500 (≈ 1500 µM) |  | 25 (≈ 75 µM) | 500 (≈ 1500 µM) | > 500 | 500 (≈ 1500 µM) | 250 (≈ 750 µM) | 500 (≈ 1500 µM) | > 500 | 500 (≈ 1500 µM) | > 500 | MIC (Bacillus subtilis (Bs); pH 6.8, nutrient agar, 30° C., 48 hours, read-out: Minimum Inhibitory Concentration, Bs): 9 µg/mL (≈ 27 µM); MIC (Bacillus subtilis (Bs); pH 8.2, nutrient agar, 30° C., 48 hours, read-out: Minimum Inhibitory Concentration, Bs): 9 µg/mL (≈ 27 µM); MIC ([3]; 72 h, pH 5.5, read-out: Minimum Inhibitory Concentration, PC): 2.5 µg/mL (≈ 7.5 µM); MIC (Trichoderma viride (Tv); [30]): > 500 µg/mL; MIC (Candida albicans (Ca); [31]): > 500 µg/mL; MIC ([5]; pH 8.2, nutrient agar, 30° C., 48 hours, read-out: Minimum Inhibitory Concentration, Sa): 25 µg/mL (≈ 75 µM); MIC (Fusarium oxysporum (Fo); [32]): > 500 µg/mL; MIC ([6]; pH 5.5, read-out: Minimum Inhibitory Concentration, Ap): 5 µg/mL (≈ 15 µM); MIC ([8]; 48 h, pH 5.5, read-out: Minimum Inhibitory Concentration, SC): 2.5 µg/mL (≈ 7.5 µM)
CSc1ccc(-c2nsnc2SCSC#N)cc1 [Example XXIV, 4-(4-Methylthiophenyl)-3-thiocyanatomethylthio-1,2,5-thiadiazole] | 500 (≈ 1610 µM) | 500 (≈ 1610 µM) | 500 (≈ 1610 µM) | > 500 |  | 500 (≈ 1610 µM) | > 500 | 500 (≈ 1610 µM) | > 500 | 500 (≈ 1610 µM) | > 500 | 500 (≈ 1610 µM) | 500 (≈ 1610 µM) | > 500 | 500 (≈ 1610 µM) | 250 (≈ 803 µM) | 500 (≈ 1610 µM) | > 500 | 500 (≈ 1610 µM) | > 500 | MIC (Aspergillus niger (An); pH 5.5, malt yeast agar, 30° C., 72 hours for fungi, read-out: Minimum Inhibitory Concentration, An): 500 µg/mL (≈ 1610 µM); MIC (Trichoderma viride (Tv); [30]): 500 µg/mL (≈ 1610 µM); MIC (Candida albicans (Ca); [31]): 500 µg/mL (≈ 1610 µM); MIC (Fusarium oxysporum (Fo); [32]): 500 µg/mL (≈ 1610 µM); MIC [6, 22]: 500 µg/mL (≈ 1610 µM); MIC [8, 27]: 500 µg/mL (≈ 1610 µM)
